Experimental data reported in publication PMC11364775, “Ion occupancy of the selectivity filter controls opening of a cytoplasmic gate in the K2P channel TALK-2” (Nature Communications, 2024).
Substitutions are numbered along the chain they refer to. Read-outs that look alike come from different tables or passages of the source. Blank lines part the entries; values can stand above or below the compound they belong to.

Key:
[1] = target: T1, TALK-2 L264A mutant channels (Homo sapiens, UniProt Q96T54, L264A); assay: Conductance-voltage (G-V) curves from tail currents, V1/2 (intracellular Rb+); format: cell-based; design: expressed in transfected cells; host or cells: Xenopus laevis oocytes (cRNA injection), excised inside-out patches; settings: for Normalized current: TALK-2 L264A + 1 mM TPenA
T1 sequence (Q96T54 1-332 L264A): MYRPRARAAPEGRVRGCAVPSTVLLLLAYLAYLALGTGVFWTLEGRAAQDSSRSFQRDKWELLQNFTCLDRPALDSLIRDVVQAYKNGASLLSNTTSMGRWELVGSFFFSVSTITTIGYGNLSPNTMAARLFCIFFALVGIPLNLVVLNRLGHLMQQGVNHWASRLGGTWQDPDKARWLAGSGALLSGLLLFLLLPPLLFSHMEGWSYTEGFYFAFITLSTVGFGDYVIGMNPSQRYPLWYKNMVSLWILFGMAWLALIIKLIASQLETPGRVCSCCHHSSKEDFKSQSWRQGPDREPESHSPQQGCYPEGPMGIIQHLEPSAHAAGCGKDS
Excerpt: The voltage-dependent activation mechanism of the SF gate in K2P channels allows to estimate the electrical work (ΔG = zFΔV1/2) required for pore opening by fitting the G–V curve to a Boltzmann equation. […] The open state represents the situation of both gates being simultaneously open but voltage can only exert force on the SF gate that functions as voltage sensor. […] We further tested whether mutations that open the lower gate (L262A and L264A) would affect the extracellular pH sensitivity. […] We further explored this concept of allosteric coupling using the mutations identified in the functional alanine screen of TM2 and TM4.
Dashed lines in e, f represent the level of WT (unstimulated) V1/2 at pHe 7.4. g Normalized currents from TEVC measurements of oocytes expressing WT (n = 11) and mutant L262A (n = 5) or L264A TALK-2 channels (n = 8), respectively. Channels were activated by increasing pHe from 5.5 to 10.5 with 0.5 pH increments. Currents were elucidated with a voltage protocol ramped from −120 mV to +45 mV within 3.5 s, analyzed at +40 mV and normalized to pH 10.5. Data shown are the mean ± s.e.m and the number (n) of independent experiments is indicated in the figure and supplementary tables 3 and 4.
Conductance-voltage (G–V) relationships were determined from tail currents recorded at a holding potential (VH) of −80 mV after 300 ms depolarizing steps as indicated in the respective figure legend. Data were analyzed with a single Boltzmann fit following Eq. 6:6 GV=Imax/1+e^V−V1/2/slope+Ibase where V1/2 represents the voltage of half-maximal activation, s is the slope factor and Imax and Ibase represent the upper and lower asymptotes. Under appropriate experimental conditions, you can use slope to calculate the valence (charge) of the ion moving across the channel. Slope equals R * T/ z * F where R is the universal gas constant, T is temperature in K, F is the Faraday constant, and z is the valence.

[2] = target: T1, TALK-2 L264A mutant channels; assay: Pore blocker inhibition (dose-response, residual currents) in inside-out patches at +40 mV; format: cell-based; design: expressed in transfected cells; host or cells: Xenopus laevis oocytes (cRNA injection), excised inside-out patches
Experimental: Data shown are the mean ± s.e.m and the number (n) of independent experiments and repeats of representative measurements with similar results is indicated in the figure.
Electrophysiological recordings: Excised patch measurements in inside-out configuration under voltage-clamp conditions were performed at room temperature (22 – 24 °C). Patch pipettes were made from thick-walled borosilicate glass GB 200TF-8P (Science Products, Germany), had resistances of 0.2–0.5 MΩ (tip diameter of 10 - 25 µm) and filled with a pipette solution (in mM): 120 KCl, 10 HEPES and 3.6 CaCl2 (pH 7.0 - 8.5 adjusted with KOH/HCl) or 120 KCl, 10 AMPSO and 3.6 CaCl2 (pH 9.0 - 10.5 adjusted with KOH/HCl). Intracellular bath solutions and compounds were applied to the cytoplasmic side of excised patches for the various K^+ channels via a gravity flow multi-barrel pipette system. Intracellular solution had the following composition (in mM): 120 KCl, 10 HEPES, 2 EGTA and 1 Pyrophosphate (pH adjusted with KOH/HCl). In other intracellular bath solutions, K^+ was replaced by Rb^+ (pH 7.4 adjusted with RbOH/HCl). Currents were recorded with an EPC10 amplifier (HEKA electronics, Germany) and sampled at 10 kHz or higher and filtered with 3 kHz (-3 dB) or higher as appropriate for sampling rate.
Data analysis and statistics were done using Fitmaster (HEKA electronics, version: v2x73.5, Germany), Microsoft Excel 2021 (Microsoft Corporation, USA), and Igor Pro 9 software (WaveMetrics Inc., USA). Recorded currents were analyzed from stable membrane patches at a voltage defined in the respective figure legend or with a voltage protocol as indicated in the respective figure. […] Percentage inhibition or residual currents upon blocker application for a ligand (drug or bioactive lipid) was calculated from stable currents of excised membrane patches using the following Eqs. 2 and 3:2 %inhibition=1−Iinhibited/Ibasal*100 3 Residual current=100−%inhibition where Iinhibited refers to the stable current level recorded in the presence of a given concentration of a drug or bioactive lipid and Ibasal to the measured current before ligand application.

WT TALK-2 channels = target: T2, WT TALK-2 channels (Homo sapiens, UniProt Q96T54); settings: TALK-2 WT
T2 sequence (Q96T54 1-332): T1 sequence (Q96T54 1-332 L264A) with A264L
Experimental: Data shown are the mean ± s.e.m and the number (n) of repeats of the representative measurements with similar results is indicated in the figure.
Oocytes were surgically removed from anesthetized adult females, treated with type II collagenase (Sigma-Aldrich/Merck, Germany) and manually defolliculated. 50 nl of a solution containing the K^+ channel specific cRNA was injected into Dumont stage V - VI oocytes and subsequently incubated at 17 °C in a solution containing (mM): 54 NaCl, 30 KCl, 2.4 NaHCO3, 0.82 MgSO4 x 7 H2O, 0.41 CaCl2, 0.33 Ca(NO3)2 x 4 H2O and 7.5 TRIS (pH 7.4 adjusted with NaOH/HCl) for 1–7 days before use. Electrophysiological recordings: Excised patch measurements in inside-out configuration under voltage-clamp conditions were performed at room temperature (22 – 24 °C). Patch pipettes were made from thick-walled borosilicate glass GB 200TF-8P (Science Products, Germany), had resistances of 0.2–0.5 MΩ (tip diameter of 10 - 25 µm) and filled with a pipette solution (in mM): 120 KCl, 10 HEPES and 3.6 CaCl2 (pH 7.0 - 8.5 adjusted with KOH/HCl) or 120 KCl, 10 AMPSO and 3.6 CaCl2 (pH 9.0 - 10.5 adjusted with KOH/HCl). Intracellular bath solutions and compounds were applied to the cytoplasmic side of excised patches for the various K^+ channels via a gravity flow multi-barrel pipette system. Intracellular solution had the following composition (in mM): 120 KCl, 10 HEPES, 2 EGTA and 1 Pyrophosphate (pH adjusted with KOH/HCl). In other intracellular bath solutions, K^+ was replaced by Rb^+ (pH 7.4 adjusted with RbOH/HCl). Currents were recorded with an EPC10 amplifier (HEKA electronics, Germany) and sampled at 10 kHz or higher and filtered with 3 kHz (-3 dB) or higher as appropriate for sampling rate.

Structure (SMILES): CCCCC[N+](CCCCC)(CCCCC)CCCCC [TPenA, Tetra-pentyl-ammonium chloride]
Normalized current ([1]; Voltage 0.000): 0.564 | Normalized current ([1]; Voltage 0.005): 0.623 | Normalized current ([1]; Voltage 0.010): 0.674 | Normalized current ([1]; Voltage 0.015): 0.740 | Normalized current ([1]; Voltage 0.020): 0.788 | Normalized current ([1]; Voltage 0.025): 0.840 | Normalized current ([1]; Voltage 0.030): 0.884 | Normalized current ([1]; Voltage 0.035): 0.911 | Normalized current ([1]; Voltage 0.040): 0.934 | Normalized current ([1]; Voltage 0.045): 0.947 | Normalized current ([1]; Voltage 0.050): 0.961 | Normalized current ([1]; Voltage 0.055): 0.969 | Normalized current ([1]; Voltage 0.060): 0.977 | Normalized current ([1]; Voltage 0.065): 0.978 | Normalized current ([1]; Voltage 0.070): 0.978 | Normalized current ([1]; Voltage 0.075): 0.974 | Normalized current ([1]; Voltage 0.080): 0.988 | Normalized current ([1]; Voltage 0.085): 0.976 | Normalized current ([1]; Voltage 0.090): 0.979 | Normalized current ([1]; Voltage 0.095): 0.980 | Normalized current ([1]; Voltage 0.100): 0.977 | Normalized current ([1]; Voltage 0.105): 0.982 | Normalized current ([1]; Voltage 0.110): 0.987 | Normalized current ([1]; Voltage 0.115): 0.981 | Normalized current ([1]; Voltage -0.005): 0.522 | Normalized current ([1]; Voltage -0.010): 0.490 | Normalized current ([1]; Voltage -0.015): 0.463 | Normalized current ([1]; Voltage -0.020): 0.444 | Normalized current ([1]; Voltage -0.025): 0.430 | Normalized current ([1]; Voltage -0.030): 0.417 | Normalized current ([1]; Voltage -0.035): 0.405 | Normalized current ([1]; Voltage -0.040): 0.395 | Normalized current ([1]; Voltage -0.045): 0.384 | Normalized current ([1]; Voltage -0.050): 0.375 | Normalized current ([1]; Voltage -0.055): 0.367 | Normalized current ([1]; Voltage -0.060): 0.359 | Normalized current ([1]; Voltage -0.065): 0.351 | Normalized current ([1]; Voltage -0.070): 0.345 | Normalized current ([1]; Voltage -0.075): 0.337 | Normalized current ([1]; Voltage -0.080): 0.333 | Normalized current ([1]; Voltage -0.085): 0.330 | Normalized current ([1]; Voltage -0.090): 0.331 | Normalized current ([1]; Voltage -0.095): 0.326 | effect of TPenA on the G-V curve ([1]; TALK-2 L264A, intracellular Rb+): no marked effect | IC50 [2]: 459 ± 58 µM | Residual currents with 1 mM TPenA ([2]; TALK-2 L264A, +40 mV): 29.31% | Normalized currents ([2]; TALK-2 L264A, 1 µM TPenA): 0.99 | Normalized currents ([2]; TALK-2 L264A, 10 µM TPenA): 0.97 | Normalized currents ([2]; TALK-2 L264A, 100 µM TPenA): 0.77 | Normalized currents ([2]; TALK-2 L264A, 1000 µM TPenA): 0.32 | Normalized currents ([2]; TALK-2 L264A, 4000 µM TPenA): 0.17

Rb+-induced current (WT TALK-2 channels; 0.001 mM 2-APB): 0.79 nA | Rb+-induced current (WT TALK-2 channels; 0.01 mM 2-APB): 0.98 nA | Rb+-induced current (WT TALK-2 channels; 0.1 mM 2-APB): 2.85 nA | Rb+-induced current (WT TALK-2 channels; 0.5 mM 2-APB): 8.79 nA | Rb+-induced current (WT TALK-2 channels; 1.0 mM 2-APB): 11.82 nA | Rb+-induced current (WT TALK-2 channels; 2.0 mM 2-APB): 15.32 nA
Structure (SMILES): NCCOB(c1ccccc1)c1ccccc1 [2-APB, 2-aminoethoxydiphenyl borate]
